From paper PMC10376691, “Inhibition of Acetylcholinesterase and Amyloid-β Aggregation by Piceatannol and Analogs: Assessing In Vitro and In Vivo Impact on a Murine Model of Scopolamine-Induced Memory Impairment” (Antioxidants, 2023)
“Also recorded” adds a separate entry of the source. Where two headings read alike, the source gives them in different places.

Assays:
[1] = DPPH radical scavenging activity; conditions: 120 μM DPPH in methanol, 37 °C, 20 min
Method: DPPH radical scavenging activity was assayed following a previous report, with some modifications. […] DMSO was used instead of a sample solution in the blank group. […] The scavenging activity of the DPPH radical (%) was calculated with the following equation: (△A515blank − △A515sample) ÷ △A515blank × 100%. The IC50 of the DPPH radical scavenging activity of PIC and its analogs or that of Trolox was calculated from each linear equation by three test concentrations and their radical scavenging activities.

SH-SY5Y cells [2] = assay: Neuroprotection against Aβ peptide (25–35)-induced cell deaths (MTT); type: cell-based, human; conditions: pre-treatment 1, 2 and 10 μM for 24 h, then 40 μg/mL Aβ (25–35) 24 h; vs control p < 0.05
Method: (§1) The human SH-SY5Y neuroblastoma cell lines (CRL-2266, Lot No. 58979771) were purchased from American Type Culture Collection (Manassas, VA, USA) and used as models to investigate PIC and its analogs for neuroprotective activities against Aβ-induced cell deaths and the stimulation of neurite outgrowths. The SH-SY5Y cells were grown in DMEM/F-12 medium supplemented with 10% FBS at 37 °C under a humidified atmosphere and 5% CO2 [41]. […]. The SH-SY5Y cells (10,000 cells/well) were seeded and cultured in a DMEM/F-12 medium containing 10% FBS for 24 h at 37 °C under a humidified atmosphere and 5% CO2. […] The medium was then removed, and 40 μg/mL Aβ peptide (25–35) (dissolved in PBS) or an equal aliquot of PBS was added to the medium for another 24 h culture. The MTT was used to evaluate cell viability, and the absorbance at 570 nm was determined. The DMSO used instead of the sample solution was blank (recognized as 100%), and each treatment was expressed as relative cell viability (%). To study the stimulation of neurite outgrowth, the SH-SY5Y cells (5000 cells/well) were seeded on a 96-well plate pre-coated with poly-L-lysine and then cultured in the DMEM/F-12 medium containing 10% FBS overnight at 37 °C under a humidified atmosphere and 5% CO2. After being removed from the culture medium, each PIC, GNT, RHA, and isoRHA (at a final concentration of 10 μM in the 0.1%DMSO) or 0.1% DMSO (the control) was added to the DMEM/F-12 medium containing 10% FBS and refreshed every three days. On day 3 and day 6, each of the culture plates was photographed using an inverted microscope (ECLIPSE TS100, Nikon Instruments Inc., Tokyo, Japan). The culture medium was removed and washed with PBS, and the cultured cells in each well were fixed with 4% paraformaldehyde. To measure cell viability and quantify the neurite outgrowths of the treated SH-SY5Y in a 96-well plate, the neurite outgrowth staining kit (a two-color fluorescence assay kit) was used, following a previous report or the protocol in the manufacturer’s manual (publication number: MAN0007224), which included a cell membrane-stained fluorescent dye (orange-red fluorescence), a cell viability indicator (green fluorescence), and a reagent for background masking. The fluorescence ratios of Ex555nm/Em565nm and Ex495nm/Em515nm were determined for the neurite outgrowths and the cell viabilities, respectively. The value for the control was recognized as 100%, and each treatment was expressed relative to the control.

SH-SY5Y cells [3] = assay: Cytotoxicity on SH-SY5Y cells (MTT); type: cell-based; conditions: 1, 2, 5 and 10 μM, MTT (Figure S1)
Method: as §1, with “To study the stimulation of neurite outgrowth, the SH-SY5Y cells (5000 cells/well) were seeded on a 96-well plate pre-coated with poly-L-lysine and then cultured in the DMEM/F-12 medium containing 10% FBS overnight at 37 °C under a humidified atmosphere and 5% CO2. After being removed from the culture medium, each PIC, GNT, RHA, and isoRHA (at a final concentration of 10 μM in the 0.1%DMSO) or 0.1% DMSO (the control) was added to the DMEM/F-12 medium containing 10% FBS and refreshed every three days. On day 3 and day 6, each of the culture plates was photographed using an inverted microscope (ECLIPSE TS100, Nikon Instruments Inc., Tokyo, Japan). The culture medium was removed and washed with PBS, and the cultured cells in each well were fixed with 4% paraformaldehyde.” left out, “The value for the control was recognized as 100%, and each treatment was expressed relative to the control.” left out
The following supporting information can be downloaded at: https://www.mdpi.com/article/10.3390/antiox12071362/s1. […] The MTT was used to evaluate cell viability, and the absorbance at 570 nm was determined. The DMSO used instead of the sample solution was blank (recognized as 100%), and each treatment was expressed as relative cell viability (%). […]

[4] = oral administration to rats; cited from earlier work
[5] = rats, cited from earlier work
[6] = test system: mild to moderate AD patients; conditions: human trial, 52 weeks, cited from earlier work
recombinant human AChE = target: T1, recombinant human AChE (Homo sapiens, UniProt P22303); assay: AChE inhibitory activity in vitro (acetylthiocholine/DTNB); type: biochemical
T1 construct: purchased R&D Systems Inc. (Minneapolis, MN, USA)
Method: Commercially synthesized acetylthiocholine iodide was hydrolyzed using AChE to release thiocholine, which was coupled with DTNB to generate the yellowish 5-thio-2-nitrobenzoate for in vitro AChE activity assays. For the AChE inhibitory activity assay, each analog was dissolved in the DMSO, and final concentrations of 100, 200, and 500 μM were used for comparisons. An equal volume of DMSO instead of the sample solution was used in the blank group and expressed as 100% AChE activity. […] AChE inhibition (%) was calculated as follows: [(A405blank − A405sample)/(A405blank)] × 100%.

Aβ peptide (1–42) = target: T2, Aβ peptide (1–42) (Homo sapiens, UniProt P05067); assay: biochemical
T2 construct: The Aβ peptide (1–42) was synthesized and purchased from Kelowna International Scientific Inc; purchased Kelowna International Scientific Inc. (New Taipei, Taiwan); host or cells: chemical synthesis
Method: To prepare the 10 μM Aβ peptide working solution, commercial Aβ peptide was first weighted and dissolved in HFIP to 1 mM. Next, the solvent was evaporated in a hood and then re-dissolved using 100 μL of 60 mM NaOH. It was then diluted to 10 μM working solutions with 50 mM phosphate buffer (pH 7.4, containing 150 mM sodium chloride and 1 mM EDTA), following previous reports. […] DMSO instead of the sample solution was used as the control. The 50 mM phosphate buffer was used instead of the Aβ working solution as the sample blank. […] The IC50 of the inhibition against the Aβ aggregation of PIC and its analogs was calculated from each linear equation using three test concentrations and their inhibition capacities.

[7] = Neurite outgrowth and cell viability, two-color fluorescence assay kit; type: cell-based; conditions: human, 3-day or 6-day treatment, green fluorescence, read-out: cell viability relative to the control
Method: (§2) The SH-SY5Y cells were grown in DMEM/F-12 medium supplemented with 10% FBS at 37 °C under a humidified atmosphere and 5% CO2 [41]. […] The MTT was used to evaluate cell viability, and the absorbance at 570 nm was determined. The DMSO used instead of the sample solution was blank (recognized as 100%), and each treatment was expressed as relative cell viability (%). To study the stimulation of neurite outgrowth, the SH-SY5Y cells (5000 cells/well) were seeded on a 96-well plate pre-coated with poly-L-lysine and then cultured in the DMEM/F-12 medium containing 10% FBS overnight at 37 °C under a humidified atmosphere and 5% CO2. After being removed from the culture medium, each PIC, GNT, RHA, and isoRHA (at a final concentration of 10 μM in the 0.1%DMSO) or 0.1% DMSO (the control) was added to the DMEM/F-12 medium containing 10% FBS and refreshed every three days. On day 3 and day 6, each of the culture plates was photographed using an inverted microscope (ECLIPSE TS100, Nikon Instruments Inc., Tokyo, Japan). The culture medium was removed and washed with PBS, and the cultured cells in each well were fixed with 4% paraformaldehyde. To measure cell viability and quantify the neurite outgrowths of the treated SH-SY5Y in a 96-well plate, the neurite outgrowth staining kit (a two-color fluorescence assay kit) was used, following a previous report or the protocol in the manufacturer’s manual (publication number: MAN0007224), which included a cell membrane-stained fluorescent dye (orange-red fluorescence), a cell viability indicator (green fluorescence), and a reagent for background masking. […] The value for the control was recognized as 100%, and each treatment was expressed relative to the control.

SH-SY5Y cells [8] = assay: as above; type: cell-based; conditions: 10 μM; for stimulation of neurite outgrowths: 3-day or 6-day treatment, orange-red fluorescence, vs control
Method: as §2

[9] = test system: scopolamine-induced amnesiac ICR mice; assay: Passive avoidance test in scopolamine-induced amnesiac ICR mice; type: in vivo, mouse; conditions: PIC 50 mg/kg oral once a day, donepezil 5 mg/kg oral, scopolamine 1 mg/kg i.p.
Source text: The scopolamine-induced cognitive dysfunctions of amnesiac ICR mice were used to evaluate the effects of PIC pre-treatments on the improvement of learning and memory functions, following previous reports. The animal experimental protocols were reviewed and approved by the Institutional Animal Care and Use Committee, Taipei Medical University (No. LAC-2021-0488). After a two-week acclimation, the mice were randomly divided into four groups (N = 5 for each group). In the first stage, the mice in the PIC group were orally pre-treated with PIC (50 mg/kg) using a feeding tube, once a day from day 1 to day 7; the mice in the blank, control, and donepezil groups were treated with the same volume of distilled water from day 1 to day 7. In the second stage, on day 8 and day 9, the mice in the PIC group and the donepezil group were orally treated once with PIC (50 mg/kg) and donepezil (positive control, 5 mg/kg), respectively, using a feeding tube; the mice in the blank and the control groups were treated with the same volume of distilled water. After 30 min, each mouse was injected intraperitoneally with scopolamine (1 mg/kg, dissolved in PBS), and the mice in the blank group were each injected with an equal volume of PBS instead of the scopolamine solution. Again, 30 min after the scopolamine or PBS injection, a learning and memory evaluation was performed on each mouse with the use of a 2-day passive avoidance test. All the mice were sacrificed at the end of the animal experiments, and the brain tissues of the mice in each group were isolated, weighted, and stored at −80 °C for further use.
A 2-day passive avoidance test, which included an acquisition trial on the first day and a retention trial on the second day, was used to evaluate the learning and memory functions of the scopolamine-induced cognitive dysfunctions of amnesiac ICR mice after PIC and donepezil treatments, following previous reports. A shuttle chamber (AccuScan Instruments Inc., Columbus, OH, USA) with a light box and a dark box separated by a sliding door was used. On day 8, after acclimation around the shuttle chamber for 30 min, each scopolamine-injected or PBS-injected mouse was placed in the light box for the acquisition trial. Once the mouse entered the dark box, the step-through latency (s) was recorded, and the sliding door was closed at the same time. Immediately after, the mouse was administered an electric foot shock (0.3 mA for 3 s) via the wired metal floor and then sent back to the cage. […] The step-through latency (period of time that each mouse stayed in the light box) was recorded again. […] The protein content of the whole brain extracts from the mice was quantified using the BCA protein kit, with bovine serum albumin as the standard protein. […]

[10] = 500 mg once daily up to 1000 mg twice daily

T1 sequence (P22303 32-614): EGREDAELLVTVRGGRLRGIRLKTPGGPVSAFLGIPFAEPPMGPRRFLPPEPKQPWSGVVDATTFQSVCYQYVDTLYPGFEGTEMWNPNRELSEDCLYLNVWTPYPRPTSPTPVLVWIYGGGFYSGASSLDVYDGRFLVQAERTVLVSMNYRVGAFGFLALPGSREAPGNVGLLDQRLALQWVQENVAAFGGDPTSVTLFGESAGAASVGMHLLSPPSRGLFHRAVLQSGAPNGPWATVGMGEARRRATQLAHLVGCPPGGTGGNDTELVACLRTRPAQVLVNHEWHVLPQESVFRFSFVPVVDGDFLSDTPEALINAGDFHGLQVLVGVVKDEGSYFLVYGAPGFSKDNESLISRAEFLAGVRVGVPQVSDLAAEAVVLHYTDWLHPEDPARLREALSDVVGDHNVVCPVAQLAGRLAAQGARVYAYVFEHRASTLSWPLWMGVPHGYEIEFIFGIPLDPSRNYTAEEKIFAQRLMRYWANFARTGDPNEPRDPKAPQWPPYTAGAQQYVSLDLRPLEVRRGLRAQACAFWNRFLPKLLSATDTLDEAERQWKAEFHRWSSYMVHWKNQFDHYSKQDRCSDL
T2 sequence (P05067 672-713): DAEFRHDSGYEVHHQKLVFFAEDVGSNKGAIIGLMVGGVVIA

| SMILES | IC50 [1] [µM] | neuroprotection: cell viability against Aβ peptide (25–35)-induced cell deaths (SH-SY5Y cells [2]) | cytotoxicity on SH-SY5Y cells (SH-SY5Y cells [3]) | IC50 (recombinant human AChE) [µM] | IC50 (Aβ peptide (1–42)) [µM] | stimulation of neurite outgrowths (SH-SY5Y cells [8]) | also measured |
| --- | --- | --- | --- | --- | --- | --- | --- |
| Cc1c(C)c2c(c(C)c1O)CCC(C)(C(=O)O)O2 (stereo not shown) [Trolox, 6-hydroxy-2,5,7,8-tetramethylchroman-2-carboxylic acid, reference compound] | 83.1 | – | – | – | – | – | – |
| Oc1ccc(C=Cc2cc(O)cc(O)c2)cc1 [RSV, 3,5,4′-trihydroxystilbene] | – | elevated cell viabilities | insignificant cytotoxicity | – | – | – | bioavailability [4]: 29.8%; half-life [4]: 1.48 h; AUC0–8h in plasma, intact compound ([5]; co-administration of PIC and RSV, each at 180 μmol/kg): 4.1 µM·h; AUC0–8h in plasma, intact compound ([5]; intragastric, 90 μmol/kg): 2.0 µM·h; AUC0–8h in plasma, intact compound ([5]; intragastric, 180 μmol/kg): 4.7 µM·h; AUC0–8h in plasma, intact compound ([5]; intragastric, 360 μmol/kg): 8.6 µM·h; crossing of the blood–brain barrier [6, 10]: could cross the blood–brain barrier; safety and tolerance [6, 10]: safe and had good tolerance with adverse effects of nausea, diarrhea, and weight loss; Aβ42 and Aβ40 levels in the cerebrospinal fluid [6]: reduced |
| COc1ccc(/C=C/c2cc(O)cc(O)c2)cc1O [RHA, 3,5,3′-trihydroxy-4′-methoxystilbene] | 57.8 | elevated cell viabilities | – | 322 | 2.93 | stimulate neurite outgrowths; also recorded: showed stimulated activities toward neurite outgrowths; also recorded: showed stimulatory activity in neurite outgrowths | viability at 10 µM ([7]; SH-SY5Y neuroblastoma cells): 80%; total neurite lengths in living SH-SY5Y cells, fold of the control (SH-SY5Y cells [8]; calculated): 1.375 fold |
| COc1cc2c(cc1OC)C(=O)C(CC1CCN(Cc3ccccc3)CC1)C2 (stereo not shown) [donepezil, reference compound] | – | – | – | – | – | – | step-through latency, acquisition trial (first day) [9]: no significant difference among the groups; step-through latency, retention trial (second day) ([9]; vs control p < 0.05): longer staying time |
| Oc1cc(O)cc(C=Cc2c(O)cccc2O)c1 [GNT, 3,5,2′,6′-tetrahydroxystilbene] | 97 | elevated cell viabilities | insignificant cytotoxicity | 276 | 1.76 | not PIC nor GNT; also recorded: not PIC and GNT | viability at 10 µM [7]: 80% |
